The target of data set [1] is T1, CXCR4 (Mus musculus, UniProt P70658).
T1 construct: from tissue; host or cells: live mice (C57Bl/6J for mobilization)
Briefly: Asthma mouse model (OVA challenge). The class given is in vivo. Conditions: mice, i.p., allergen challenge with OVA. The protocol: Mice were sensitized by intraperitoneal (i.p.) injection on days 0, 1 and 2 of 50 μg ovalbumin (OVA, Sigma-Aldrich, A5503) adsorbed on 2 mg aluminium hydroxide (Sigma-Aldrich, 23918-6) in saline. Mice were challenged by intranasal (i.n.) instillation of 10 μg OVA in 25 μl saline (12.5 μl/nostril) or saline alone for control mice on days 5, 6 and 7 under anesthesia (50 mg/kg ketamine and 3.3 mg/kg xylazine, i.p.). the peptide of SEQ ID NO 16 or ALB409-423 in saline were administered i.p. (16 μmol/kg) two hours before each OVA challenge. Bronchoalveolar lavage (BAL) and differential cell counts were performed 24 h after the last OVA challenge as previously reported in (Rebber et al., 2012).

Data set [2] relates to wild-type (wt) HIV-1 NL4-3 in PBMCs. Briefly: PBMC infection assay. Type of data set: cell-based. Conditions: concentrations ≥4 μg/ml. As for the experimental part:
Peripheral blood mononuclear cells were isolated from Buffy coat derived from the DRK-Blutspendedienst Baden-Württemberg-Hessen using Ficoll density centrifugation. 1×10^6 PBMC per ml were stimulated with 1 μg/ml phytohemagglutinine (PHA, Oxoid, #3085280) and 10 ng/ml Interleukin 2 (IL-2, Strathmann, #9511192) for three days. Thereafter, cells were pelleted and resuspended in IL-2 containing medium. 2×10^5 PBMC were seeded in 96 well F-bottom microtiter plates, peptides were added and cells were infected with […] p24 antigen of X4 or R5 tropic viruses. Supernatants containing progeny virus were taken at every 2-3 days post infection. Virus production was measured by p24 antigen ELISA (NIH AIDS reagent program). The mean p24 antigen values (ng/ml) were derived from triplicate infections±standard deviation.

Data set [3] concerns the target T2, CXCR4 (Homo sapiens, UniProt P61073).
T2 construct: expressed in transfected cells
Briefly: Competition with CXCL12 binding to CXCR4 (real-time fluorescence, eGFP-CXCR4 cells). Conditions: read-out: dissociation constant (DC50), competition with CXCL12 binding to CXCR4. The protocol: Anti-human CXCR4 (clone 12G5, IgG2a) or anti-human CXCR7 (clone 9C4) monoclonal antibodies (mAbs) were purchased from R&D Systems (Minneapolis, Minn.). […] The human chemokines CXCL12 and CXCL12-TexasRed were synthesized as described (Valenzuela-Fernandez, et al. 2001). The human chemokine CXCL11 was purchased from Clinisciences SAS (France).
Experiments were performed using cells stably expressing eGFP-CXCR4, suspended in HEPES-bovine serum albumin buffer (10 mM HEPES, 137.5 mM NaCl, 1.25 mM MgCl2, 1.25 mM CaCl2, 6 mM KCl, 10 mM glucose, 0.4 mM NaH2PO4, 0.1% bovine serum albumin (w/v), pH 7.4) (typically at 10^6 cells/mL). Time-based recordings of the fluorescence emitted at 510 nm (excitation at 470 nm) were performed at 21° C. using a spectrofluorimeter and sampled every 0.3 s. Fluorescence binding measurements were initiated by adding at 30 s 100 nM of CXCL12-TR to the 1 mL cell suspension. For competition experiments, EGFP-CXCR4 expressing cells were preincubated for 10 min in the absence or presence of various concentrations of unlabelled drugs. Then, CXCL12-TR (100 nM) was added and fluorescence was recorded until equilibrium was reached (300 s). Data were analyzed using Kaleidagraph 3.08 software (Synergy Software, Reading, Pa., USA).

In another data set the test system is X4 HIV-2 strains. Nature of the data set: TZM-bl infection assay, X4 HIV-2. Type of data set: cell-based. Conditions: effects relatively modest. As for the experimental part:
(§1) HIV-1, HIV-2 and SIV molecular clones differing in coreceptor tropism were generated by transient transfection of 293T cells with proviral DNA by the calcium phosphate method (CalPhos™ Mammalian Transfection Kit, Clon-tech). After overnight incubation, the transfection mixture was replaced by DMEM medium supplemented with 10% FCS, and virus stocks were harvested 48 hrs post-transfection. Subsequently, the culture supernatant was centrifuged for 5 min at 3000 rpm to remove cell debris. The resulting virus stock was quantified by p24 (HIV) or p27 (SIV) antigen ELISA. Virus stocks were either used immediately or stored in aliquots at −80° C.
(§2) TZM-bl reporter cells containing the LacZ reporter gene under the control of the HIV-1 promoter were seeded in 96-well F-bottom microtiter plates (Greiner Bio-One). On the following day, the cells were preincubated with various dilutions of the peptide of SEQ ID NO 16 or its derivatives for 1 hour and subsequently infected with HIV-1, HIV-2, and SIV. Infection rates were determined after 2 days using the one-step Tropix Gal-Screen Kit, as recommended by the manufacturer.

The test system of data set [4] is TZM-bl cells or prestimulated PBMCs. As for the experimental part:
To assess cytotoxic effects TZM-bl cells or prestimulated PBMCs were incubated with increasing concentrations of peptides. Cell viability was determined using the CellTiter-Glo Luminescent Cell Viability Assay (PROMEGA, G7571) as recommended by the manufacturer. Values were derived from triplicate measurements. Vitality rates were calculated relative to ATP levels in PBS (no peptide) containing cells (100%). Data were recorded using a luminometer 10 minutes after adding reagent.

The nature of data set [5]: Transplantation of mobilized cells. Type of data set: in vivo. The protocol:
[…] animals were injected with the peptide of SEQ ID NO 16 (2 mg i.p in saline) or controls saline. Peripheral blood was individually harvested 1 hour post injection, counted, combined and competitively transplanted (660 μl blood equivalent) alongside 4×10^5 C57BL/6 CD45.1 BM cells into C57BL/6 Cd45.1 recipients.

Another data set relates to SIV strains. Briefly: TZM-bl infection assay, SIV. Type of data set: cell-based. Conditions: effects relatively modest. As for the experimental part:
as §1, §2

The test system of the next data set is Jurkat T cells. Nature of the data set: CXCL12-induced migration of Jurkat T cells. The class given is cell-based. The protocol: Migration of Jurkat cells (ATCC) was analyzed using 6.5 mm diameter chambers with 5 μm pore filters (Transwell, 24-well cell culture, Coster, Boston, Mass.). 2×10^5 Jurkat cells were suspended in 200 μl Optimizer T-Cell Expansion SFM, and the cell suspensions were added to the upper chamber. Then, 10 nM CXCL12 (R&D System) and/or various concentrations of the peptide of SEQ ID NO 16 or its derivatives in 600 μl T-Cell Expansion SFM were added to the lower chamber. The cell culture chambers were incubated for 150 min in a cell culture incubator at 37° C. After incubation, chambers were removed, 100 μl of supernatants were taken and cells that migrated into the lower compartment were either counted directly using a hemocytometer or analyzed using the CellTiter-Glo Luminescent Cell Viability Assay as described above. All values represent mean numbers of migrated cells relative to CXCL12 only treated cells from a triplicate experiment±SD.

For another data set, the system named is Candida albicans. Nature of the data set: Antifungal activity against Candida. Type of data set: cell-based.

No end group written: not given here.

T1 sequence (P70658 whole entry): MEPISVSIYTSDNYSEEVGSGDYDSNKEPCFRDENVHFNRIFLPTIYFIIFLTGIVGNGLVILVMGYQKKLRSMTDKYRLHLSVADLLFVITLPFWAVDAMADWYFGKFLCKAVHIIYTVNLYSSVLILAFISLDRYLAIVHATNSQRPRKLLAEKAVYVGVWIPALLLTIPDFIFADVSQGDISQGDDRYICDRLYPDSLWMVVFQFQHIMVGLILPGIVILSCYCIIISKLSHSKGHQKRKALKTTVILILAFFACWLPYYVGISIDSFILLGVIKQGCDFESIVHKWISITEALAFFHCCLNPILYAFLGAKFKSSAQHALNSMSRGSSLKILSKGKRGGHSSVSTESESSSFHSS
T2 sequence (P61073 whole entry): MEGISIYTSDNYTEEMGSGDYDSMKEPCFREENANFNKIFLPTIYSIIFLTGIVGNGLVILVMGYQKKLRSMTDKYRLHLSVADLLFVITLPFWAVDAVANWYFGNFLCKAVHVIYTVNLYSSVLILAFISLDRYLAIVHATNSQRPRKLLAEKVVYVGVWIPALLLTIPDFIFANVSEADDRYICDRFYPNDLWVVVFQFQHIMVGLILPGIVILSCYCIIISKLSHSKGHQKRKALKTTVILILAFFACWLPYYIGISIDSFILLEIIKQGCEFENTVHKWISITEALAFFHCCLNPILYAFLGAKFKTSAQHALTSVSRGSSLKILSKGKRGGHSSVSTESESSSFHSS

On to “LVRYTKKVPQVSTPTL [Derivative 408-423, LVRYTKKVPQVSTPTL]”, for which, at CXCR4 [1], the “CXCR4-dependent infiltration of neutrophils, lymphocytes and eosinophils into the airways” value was “significantly reduced”; the infiltration of macrophages entry was “markedly reduced”. Also, in [2], the “Replication of wild-type HIV-1 NL4-3 in PBMCs” value is reported as “markedly suppressed”. Moreover, the DC50 at CXCR4 [3] was found to be 8 ± 3 µM. Besides, the “infection by X4 HIV-2 strains” value in the data set on X4 HIV-2 strains is “inhibits infection”. In addition, the cytotoxic effects result in [4] is given as “did not display cytotoxic effects”. In addition, in data set [5], the “engraftment rates after transplantation of cells from treated mice” value was “increased engraftment rates”. Also, in the data set with SIV strains, the “infection by SIV strains” value is reported as “inhibits infection”. Also, the “CXCL12-induced migration of Jurkat T cells” value with Jurkat T cells is given as “suppressed”. Further, the “effects against Candida albicans” value in the data set on Candida albicans is listed as “only modest effects”.

(Values after patent US10294272B2, “Peptides with antagonistic activities against natural CXCR4” (Pharis Biotec GmbH, priority 2013, dated 2019).)
